The values that follow come from patent publication US5045530A, “Pharmaceutical preparations” (priority 1986, dated 1991).

Values joined by “and” are separate entries in the source; they are usually repeats but may differ in a detail not shown here. Equal values may be shown once. Read-outs that look alike come from different tables or passages of the source.

The nature of series [1]: critical micellization concentration (cmc). The format is physicochemical.
The nature of series [2]: hydrodynamic (Stokes) radius / size of micelles and vesicles, inelastic light scattering. The format is physicochemical.
Another series deals with fungus. The series is described as follows: antifungal effect in combination with N-tensides. The following applies: combination with N+ tensides of formula I and II.
The next series concerns salivary secretion. The conditions noted are these: in vivo.
The next series has as its target T1, adenosine-desaminase (Homo sapiens, UniProt P00813).
T1 sequence (P00813 1-363): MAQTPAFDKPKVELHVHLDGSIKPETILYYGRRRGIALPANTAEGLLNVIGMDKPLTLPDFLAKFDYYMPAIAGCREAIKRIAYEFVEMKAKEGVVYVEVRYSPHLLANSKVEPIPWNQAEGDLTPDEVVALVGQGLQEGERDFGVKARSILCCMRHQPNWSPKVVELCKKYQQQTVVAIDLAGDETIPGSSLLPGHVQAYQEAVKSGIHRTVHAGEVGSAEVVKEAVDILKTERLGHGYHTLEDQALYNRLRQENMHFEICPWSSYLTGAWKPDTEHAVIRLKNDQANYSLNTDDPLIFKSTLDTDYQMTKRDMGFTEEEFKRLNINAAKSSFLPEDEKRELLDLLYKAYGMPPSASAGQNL
Nature of the series: antitumor activity of micellarly dissolved adenosine-desaminase inhibitors. The conditions noted are these: dissolved micellarly according to formula I and II.

A further series relates to influenza A virus. The format is cell-based.
For series [3], the system named is influenza A strains. The conditions noted are these: amantadine on its own, in vitro; cited from earlier work.
The test system of series [4] is influenza A strains. The class given is cell-based, influenza virus type A.
The subject of the next series is influenza virus type B. Nature of the series: inhibition of influenza B in vitro. The format is cell-based. The procedure:
Amantadine (1-adamantanamine-HCl) has a particular pharmadynamic action against influenza viruses (class A). The replication of most influenza A strains is inhibited in vitro between 0.2-0.6 μg/ml. Micellarly included amantadine in cationic micelles, in particular of the form (Het≡N--(CH2)x --CH3)Y⊖, effect a reduction of the concentration of pharmaceutical active substance to 0.05 μg/ml amantadine, measured by Hayden et al. (Plaque inhibition assay for drug susceptibility resting of influenza viruses. Antimicrob. Ag. Chemother. 1980, 17: […]; Grunert et al.; Sensitivity of influenza A/New Jersey 18/76/(Hswl-Nl) virus to amantadine HCl, J. Inf. Dis. 1977, 136, 297-300).
With a concentration of 0.01% by weight of amantadine for influenza virus type B corresponding to a concentration of 0.5 μg/ml pharmaceutical active substance in vitro.

Series [5] can be described thus: micellar incorporation of active substances by dialysis, extinction at 260 nm. The class given is physicochemical. The conditions noted are these: hexadecylpyridinium chloride micelles, 20° C., pH 5.5.
For series [6], the system named is influenza virus, subgroup A2; Herpes simplex virus HSV I-III. The format is cell-based. The conditions noted are these: monolayer cells infected with Herpes simplex virus type 1 or influenza virus type A2; with N+-tensides of formula I and II.
For series [7], the target named is B. subtilis DNA polymerase III (Bacillus subtilis, UniProt P13267). Nature of the series: inhibition of DNA polymerase III by micellarly included Hg(CN)2 and Hg(CN)2 ascorbate. The format is biochemical. The conditions noted are these: micellarly included Hg(CN)2 / Hg(CN)2 ascorbate in the tenside named. The procedure: Analogously to example 2 10 mg Hg(CN)2 and 40 mg Na ascorbate at pH 7.0 are dissolved in 10 ml phosphate buffer. The suspension is subjected to an ultrasonic treatment at 0° C. for 5 min, slowly heated to 20° C. and centrifuged to a 10% (^w /w) linear glycerol gradient in a preparative ultracentrifuge at 1000 xg for 6 hours (20° C., Polyalomer tubes).
The inhibitor concentrations are given in 50% of the complete inhibition. The assay which was used is that according to Clements, J; D'Ambrosio, J; Brown, N.C; J.Biol.Chem. (1975) 250, 522 and Wright, G.E.; Brown, N.C; Biochem. Biophys. Acta (1976) 432, 37.

For a further series, the system named is pyrimidine biosynthesis. Nature of the series: pyrimidine biosynthesis. The following applies: micellarly included.

Sequence of B. subtilis DNA polymerase III (P13267 whole entry): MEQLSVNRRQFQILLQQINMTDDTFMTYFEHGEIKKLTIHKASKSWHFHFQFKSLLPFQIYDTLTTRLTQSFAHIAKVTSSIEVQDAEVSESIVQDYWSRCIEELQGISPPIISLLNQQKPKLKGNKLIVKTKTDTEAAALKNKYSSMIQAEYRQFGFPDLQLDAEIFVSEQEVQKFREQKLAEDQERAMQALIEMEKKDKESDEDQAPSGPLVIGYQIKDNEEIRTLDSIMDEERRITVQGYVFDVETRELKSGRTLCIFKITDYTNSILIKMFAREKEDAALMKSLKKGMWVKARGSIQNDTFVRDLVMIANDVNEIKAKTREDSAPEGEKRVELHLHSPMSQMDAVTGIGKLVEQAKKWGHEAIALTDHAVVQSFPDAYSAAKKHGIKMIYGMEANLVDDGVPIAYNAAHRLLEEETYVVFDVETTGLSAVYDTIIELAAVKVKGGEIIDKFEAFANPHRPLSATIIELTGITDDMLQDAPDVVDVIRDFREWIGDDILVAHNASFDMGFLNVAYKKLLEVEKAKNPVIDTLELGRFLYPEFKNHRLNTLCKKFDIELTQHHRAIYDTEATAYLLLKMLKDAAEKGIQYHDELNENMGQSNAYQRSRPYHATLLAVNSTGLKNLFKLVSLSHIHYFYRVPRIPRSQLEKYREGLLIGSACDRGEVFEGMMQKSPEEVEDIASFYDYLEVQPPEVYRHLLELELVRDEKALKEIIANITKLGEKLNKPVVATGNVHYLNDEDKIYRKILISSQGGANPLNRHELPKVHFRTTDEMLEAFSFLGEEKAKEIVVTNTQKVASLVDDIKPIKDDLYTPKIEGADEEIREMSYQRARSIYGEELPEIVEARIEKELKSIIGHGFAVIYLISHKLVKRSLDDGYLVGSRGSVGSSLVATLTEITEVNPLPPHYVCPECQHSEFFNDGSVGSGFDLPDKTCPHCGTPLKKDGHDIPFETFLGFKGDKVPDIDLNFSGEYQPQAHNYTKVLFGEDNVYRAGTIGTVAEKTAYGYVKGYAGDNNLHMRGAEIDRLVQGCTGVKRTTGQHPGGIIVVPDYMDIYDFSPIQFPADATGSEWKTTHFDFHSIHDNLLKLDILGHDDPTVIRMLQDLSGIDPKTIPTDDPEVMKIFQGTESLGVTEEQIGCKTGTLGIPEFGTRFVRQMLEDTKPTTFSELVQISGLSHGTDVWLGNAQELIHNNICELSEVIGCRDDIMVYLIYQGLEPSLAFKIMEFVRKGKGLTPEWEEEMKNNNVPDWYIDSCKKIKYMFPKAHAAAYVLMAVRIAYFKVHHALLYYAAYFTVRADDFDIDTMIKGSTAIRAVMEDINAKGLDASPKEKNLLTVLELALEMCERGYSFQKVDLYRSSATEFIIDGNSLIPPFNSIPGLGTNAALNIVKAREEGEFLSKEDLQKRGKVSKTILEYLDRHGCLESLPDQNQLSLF

Consider `CCCCCCCCCCCCCCCC[n+]1ccnc(C(N)=O)c1` [2-Carboxamide-4-hexadecyl-1,4-diazinium], for which, in series [1] (Table 2, HET≡N+-(CH2)x-CH3 Y-), the “cmc × 10^-6 M” value was 0.30 × 10^-6 M. Same read-out and setting: the result for 4-Methyl- -2-hexadecyl-pyrazolium reads 0.70 × 10^-6 M; that for Hexadecyl-pyrimidinium, 2.50 × 10^-6 M.

As for `CCCCCCCCCCCCCCCC[n+]1cc(C)c(O)cc1O` [2,-4-Dihydroxy-5-methyl-hexadecyl-pyridinium], in [2], the “<RH> hydrodynamic radius” value was 1000 and 1500. “3-Hexadecyl-5,6-dihydroxy-benzthiazolium”: the “cmc × 10^-6 M” value in [1] (Table 2, HET≡N+-(CH2)x-CH3 Y-) is given as 7.90 × 10^-6 M. 5-Methyl-1-hexadecylimidazolium: the “cmc × 10^-6 M” value in [1] (Table 2, HET≡N+-(CH2)x-CH3 Y-) is given as 3.90 × 10^-6 M. Same read-out and setting: the result for “2-Hydroxy,6-amino-hexadecyl-pyrimidinium” reads 2.00 × 10^-6 M; that for 3-Dodecyl-6-methyl-benzimidazolium, 7.30 × 10^-6 M. Turning to `CCCCCCCCCCCCCCCC[n+]1cc(F)c(O)cc1O` [2,-4-Dihydroxy-5-Fluoro hexadecyl-pyridinium], in [2], the “<RH> hydrodynamic radius” value was 210 and 150.

As to `Clc1ccccc1C(c1ccccc1)(c1ccccc1)n1ccnc1` [clotrimazole], the “intensification of the antifungal effect by N+ tensides” value (from here on “intensification … by N+ tensides”) with fungus was “≈ 35%”.

On to 2-carboxamid-3-dodecyl-1,4-pyridinium, for which, in [2] (Table 3, counter ion Y- = NO3-), the “<RH> hydrodynamic radius” value is given as 366 Å. “2-Hydroxy,5-methyl,6-amino-hexadecyl-pyrimidinium”: the “cmc × 10^-6 M” value in series [1] (Table 2, HET≡N+-(CH2)x-CH3 Y-) is given as 1.00 × 10^-6 M.

Turning to `Clc1ccc(COC(Cn2ccnc2)c2ccc(Cl)cc2Cl)cc1` (centres unmarked) [econazole], the “intensification … by N+ tensides” value in the series with fungus is “≈ 35%”. Take `CN1[C@@H]2CC[C@H]1C[C@@H](OC(=O)C(CO)c1ccccc1)C2` (some centres unmarked) [atropine]: the “intensification of the inhibitory effect on salivary secretion” value with salivary secretion is recorded as “tenfold”. erythro-9-(2-hydroxy-3-nonyl)-adenine: the “intensification of the antitumor activity” value at adenosine-desaminase is recorded as “tenfold”. As for `Cl.NC12CC3CC(CC(C3)C1)C2` [1-adamantaneamine HCl, 1-adamantanamine-HCl], in the series on influenza A virus, the “Inhibition, 10log (pfu/ml of the inhibitor)/(pfu/ml check)” value is -1.11 and the “Titration of infection, Plaque forming units” value was 2 × 10^6. In addition, in the series with influenza A strains [3], the “concentration inhibiting replication of most influenza A strains” value was 0.2 to 0.6 µg/mL. Further, in the series with influenza A strains [4], the “concentration of active substance for inhibition” value worked out at 0.05 µg/mL. Also, the “activity against influenza virus type B” value with influenza virus type B (amantadine on its own) was “practically no activity”. For the same molecule, in the series with influenza virus type B (micellarly included in cationic tensides, 0.01% by weight of amantadine), the “concentration showing inhibition of influenza virus type B” value was found to be 0.5 µg/mL. As for `CCCCCCCCCCCCCCCC[n+]1c(O)ncc(F)c1O` [2,6-Dihydroxy,5-Fluor,hexadecyl-pyrimidinium], the “cmc × 10^-6 M” value in series [1] (Table 2, HET≡N+-(CH2)x-CH3 Y-) is recorded as 0.85 × 10^-6 M. Consider 3-Hexadecylthiazolium, for which the “cmc × 10^-6 M” value in series [1] (Table 2, HET≡N+-(CH2)x-CH3 Y-) is on record as 0.91 × 10^-6 M.

As to `O=c1[nH]c(=O)n([C@H]2C[C@H](O)[C@@H](CO)O2)cc1I` [Idoxuridine, idoxuridine], the “Yield (%) of micellar incorporation” value in [5] (Table 1 experiment 1, Trifluoroamame 5, Idoxuridine […]100 ml) is 95%; in [5] (Table 1 experiment 2, Trifluoroamame 7.5, Idoxuridine 10.5 mg/100 ml) it was 98%; in series [5] (Table 1 experiment 3, Trifluoroamame 10.0, Idoxuridine 12.5 mg/100 ml), 98%; in [5] (Table 1 experiment 4, Trifluoroamame 12.0, Idoxuridine […]100 ml) it was 98%; in series [5] (Table 1 experiment 5, Trifluoroamame 15.0, Idoxuridine 17.0 mg/100 ml), 97%; in [5] (Table 1 experiment 6, Trifluoroamame 17.0, Idoxuridine 20.0 mg/100 ml) it was 96%. The “Yield (%) of micellar incorporation” value in [5] (Table 1 experiment 7, Trifluoroamame 20.0, Idoxuridine 21.5 mg/100 ml) is recorded as 98%; in series [5] (Table 1 experiment 8, Trifluoroamame 25.0, Idoxuridine 23.0 mg/100 ml), 100%; in series [5] (Table 1 experiment 9, Trifluoroamame 30.0, Idoxuridine 24.0 mg/100 ml), 100%; in series [5] (Table 1 experiment 10, Trifluoroamame 50.0, Idoxuridine 30.0 mg/100 ml) it was 100%. Also, in series [6], the “lowering of the inhibition concentration compared with applications without quaternary ammonium bases” value is recorded as 30%.

Consider `CCCCCCCCCCCCCCCCC(CCCCCCCCCCCCCCCC)c1cc[n+](C)cc1.[Cl-]` [4-(17-tritriacontyl)-N-methylpyridinium chloride], for which, in series [7], the competitive with result is reported as “dGTP”. For `O=c1[nH]c(=O)n([C@H]2C[C@H](O)[C@@H](CO)O2)cc1C(F)(F)F` [trifluorothymidine], the “lowering of the inhibition concentration compared with applications without quaternary ammonium bases” value in series [6] is reported as 30%. For the molecule 2-Carboxamid-3-hexadecyl-1,4-pyridinium, in series [2] (Table 3, counter ion Y- = NO3-), the “<RH> hydrodynamic radius” value was determined as 440 Å. For 2,6-Dihydroxy-dodecyl-pyrimidinium, the “cmc × 10^-6 M” value in [1] (Table 2, HET≡N+-(CH2)x-CH3 Y-) is 1.90 × 10^-6 M.

With “3-[[(Dimethylamino)-carboxyl]oxyl]-1-hexadecyl-pyridinium”, the competitive with entry in series [7] is listed as “dATP”. Turning to N-Hexadecyl-4-cetyl-imidazolinium, in series [2], the “<RH> hydrodynamic radius” value was 100 and 150. Still for that read-out and setting: next, “Cetyl-2,3-dihydroxy-propyl-hexadecyl-pyridinium”: 150.0 and 180.4 and 210.4 and 120.0. Turning to 3-Hexadecyl-6-methyl-benzimidazolium, the “cmc × 10^-6 M” value in series [1] (Table 2, HET≡N+-(CH2)x-CH3 Y-) is on record as 17.00 × 10^-6 M.

Turning to `CCCCCCCCCCCC[n+]1csc2ccccc21` [3-Dodocyl-benzthiazolium], the “cmc × 10^-6 M” value in series [1] (Table 2, HET≡N+-(CH2)x-CH3 Y-) is 10.90 × 10^-6 M.

On to `CCCCCCCCCCCCCCCC[n+]1ccccc1.[Cl-]` [hexadecylpyridinium chloride, N-(n-hexadecyl)-pyridinium chloride, reference compound], for which the “RH (Å) (±5.0 Å)” value in [2] (pH 5.5) was 45.0 and 50.5 and 60.0 and 65.0 and 71.5 and 75.0 and 78.0. In the case of `Nc1ccn([C@@H]2O[C@H](CO)[C@@H](O)[C@@H]2O)c(=O)n1` [cytarabine], in [6], the “lowering of the inhibition concentration compared with applications without quaternary ammonium bases” value was determined as 30%. 2,5-Dimethyl-3-hexadecyl-thiazolium: the “cmc × 10^-6 M” value in [1] (Table 2, HET≡N+-(CH2)x-CH3 Y-) is 15.00 × 10^-6 M.

In the case of `CC(N)C12CC3CC(CC(C3)C1)C2.Cl` (stereo not drawn) [rimantadine, α-methyl-1-adamantanemethylamine hydrochloride], in the series with influenza A strains [4], the “dose with the same in vitro effect as the pure active substance” value is 0.05 µg/mL.

For 8-Ketohexadecylpyridinium, the competitive with entry in [7] is reported as “dGTP”. With `O=C(O)C[C@H](NC(=O)CP(=O)(O)O)C(=O)O` [N-(phosphonoacetyl)-aspartate], the “intensification of the effect on pyrimidine biosynthesis (blocking of the carbamylation of aspartate)” value in the series with pyrimidine biosynthesis is listed as 20 fold. For the molecule Hexadecyl-4-Hydroxy-pyridinium, the “cmc × 10^-6 M” value in series [1] (Table 2, HET≡N+-(CH2)x-CH3 Y-) was 0.95 × 10^-6 M. On the same count and under the same terms, next, Dodecyl-pyrimidinium: 1.20 × 10^-6 M. “3,5-bis[n-hexadecyloxy-carbonyl]-N-methyl-pyridinium”: the competitive with entry in series [7] is recorded as “dGTP”. On to `NC(=O)c1[nH]nc([C@@H]2O[C@H](CO)[C@@H](O)[C@H]2O)c1O` [pyrazofurine], for which the “irreversible inhibition of pyrimidine biosynthesis” value with pyrimidine biosynthesis turned out to be 20%.

For 3-Hexadecylbenzimidazolium, the “cmc × 10^-6 M” value in series [1] (Table 2, HET≡N+-(CH2)x-CH3 Y-) is recorded as 6.70 × 10^-6 M.

On to `CCCCCCCCCCCC[n+]1ccccc1` [Dodecyl-pyridinium], for which the “cmc × 10^-6 M” value in series [1] is recorded as 1.52. As to `Clc1ccc(COC(Cn2ccnc2)c2ccc(Cl)cc2Cl)c(Cl)c1` (centres unmarked) [miconazole], in the series on fungus, the “intensification … by N+ tensides” value is reported as “≈ 35%”.
